Data from patent publication US11370791B2, “Solid polymorphs of a FLNA-binding compound and its hydrochloride salts” (Pain Therapeutics, Inc., priority 2019, dated 2022).
Entries after “also recorded” stand apart in the source; their conditions may differ. Counter-ions that a name gives are not always drawn. Like-named read-outs stand apart in the source and are kept apart here.

Experiments:
[1] = 1 week stability studies (HPLC purity, XRPD, appearance); type: physicochemical; settings: for HPLC Purity T = 0 / Observations T = 0: start of stability study
Description: Each salt formed was exposed to environments of 40° C./75% RH (open vial), elevated temperature (80° C., open vial) and ambient light (about 22° C. in a closed vial), for 1 week to assess both chemical and physical stability. Resulting solids were analyzed by X-ray powder diffraction (XRPD) to establish if any changes had occurred and by HPLC to determine purity.

[2] = dynamic vapor sorption (DVS); type: physicochemical; settings: for hygroscopicity by DVS: 0%-90% RH; for hysteresis: at 0% RH
Description: Approximately 10 mg of sample was placed into a glass vapor sorption balance pan and loaded into a DVS-1 dynamic vapor sorption balance by Surface Measurement Systems. […] After completion of the sorption cycle, the sample was dried using the same procedure, from 90% RH down to 0% RH. The weight change during the sorption/desorption cycles were plotted, permitting the hygroscopic nature of the sample to be determined.

[3] = solvent solubility screen; settings: for solubility: 40 °C
filamin-A (FLNA) = molecular target: T1, filamin-A (FLNA) (Homo sapiens, UniProt P21333); settings: higher affinity binding site of the two sites; membrane preparation from A7 or SK-N-MC cells; cited from earlier work
T1 construct: in a membrane preparation from A7 cells or SK-N-MC cells; endogenous in cells; host or cells: A7 cells or SK-N-MC cells (membrane preparation)

[4] = pKa analysis, potentiometric titration; type: physicochemical; settings: 22° C., ISA water (ionic strength 0.15, KCl)
Description: The Compound titration was performed at 22° C. in ISA water. The weighed amount of TC (2.40 mg) was placed into a titration vial. ISA water (15 mL) was delivered automatically to the vial. The pH value of the solution was adjusted to 3 by adding 0.5 M HCl automatically. The titration with 0.5 M KOH was performed automatically until a pH value of 11.5 was reached. One additional mL of ISA water was added to the titration vial to perform the second titration and third titration, per titration respectively. The datasets for the three titrations were combined in the Refinement Pro program to create a Multiset for pKa calculation.
First, the pKa measurements and calculations for Compound C0105 were performed with the presumption that there were two basic ionizable groups. […] Then the pKa calculations for the Compound were performed with the presumption that there was one basic ionizable group.

[5] = hydration studies, slurries in IPA/water mixtures; type: physicochemical; settings: for Observations, hydration study: IPA/water
[6] = Ambient (light, about 22° C., closed vial)
[7] = 1,2-dichloroethene, organic solvent or mixture
[8] = 2-MeTHF, organic solvent or mixture
[9] = 2-butanol, organic solvent or mixture
[10] = 2-propanol, organic solvent or mixture
[11] = 2-propanol:water (10%), organic solvent or mixture
[12] = acetone, organic solvent or mixture
[13] = acetone:water (5%), organic solvent or mixture
[14] = acetone:water (20%), organic solvent or mixture
[15] = acetonitrile, organic solvent or mixture
[16] = cyclohexane, organic solvent or mixture
[17] = dimethylacetamide, organic solvent or mixture
[18] = dimethylsulfoxide, organic solvent or mixture
[19] = ethanol, organic solvent or mixture
[20] = ethyl acetate, organic solvent or mixture
[21] = heptane, organic solvent or mixture
[22] = isopropyl acetate, organic solvent or mixture
[23] = methanol, organic solvent or mixture
[24] = methyl acetate, organic solvent or mixture
[25] = methyl ethyl ketone, organic solvent or mixture
[26] = methyl isobutyl ketone, organic solvent or mixture
[27] = tert-butyl methyl ether, organic solvent or mixture
[28] = tetrahydrofuran, organic solvent or mixture
[29] = toluene, organic solvent or mixture
[30] = 40° C./75% RH, open vial, dihydrochloride monohydrate
[31] = 40° C./75% RH, dihydrochloride monohydrate
[32] = 80° C., open vial, dihydrochloride monohydrate
[33] = 80° C., dihydrochloride monohydrate
[34] = Ambient (light, about 22° C., closed vial), dihydrochloride monohydrate
[35] = ambient, dihydrochloride monohydrate
[36] = between 70% and 0% RH, dihydrochloride monohydrate

T1 sequence (P21333 whole entry): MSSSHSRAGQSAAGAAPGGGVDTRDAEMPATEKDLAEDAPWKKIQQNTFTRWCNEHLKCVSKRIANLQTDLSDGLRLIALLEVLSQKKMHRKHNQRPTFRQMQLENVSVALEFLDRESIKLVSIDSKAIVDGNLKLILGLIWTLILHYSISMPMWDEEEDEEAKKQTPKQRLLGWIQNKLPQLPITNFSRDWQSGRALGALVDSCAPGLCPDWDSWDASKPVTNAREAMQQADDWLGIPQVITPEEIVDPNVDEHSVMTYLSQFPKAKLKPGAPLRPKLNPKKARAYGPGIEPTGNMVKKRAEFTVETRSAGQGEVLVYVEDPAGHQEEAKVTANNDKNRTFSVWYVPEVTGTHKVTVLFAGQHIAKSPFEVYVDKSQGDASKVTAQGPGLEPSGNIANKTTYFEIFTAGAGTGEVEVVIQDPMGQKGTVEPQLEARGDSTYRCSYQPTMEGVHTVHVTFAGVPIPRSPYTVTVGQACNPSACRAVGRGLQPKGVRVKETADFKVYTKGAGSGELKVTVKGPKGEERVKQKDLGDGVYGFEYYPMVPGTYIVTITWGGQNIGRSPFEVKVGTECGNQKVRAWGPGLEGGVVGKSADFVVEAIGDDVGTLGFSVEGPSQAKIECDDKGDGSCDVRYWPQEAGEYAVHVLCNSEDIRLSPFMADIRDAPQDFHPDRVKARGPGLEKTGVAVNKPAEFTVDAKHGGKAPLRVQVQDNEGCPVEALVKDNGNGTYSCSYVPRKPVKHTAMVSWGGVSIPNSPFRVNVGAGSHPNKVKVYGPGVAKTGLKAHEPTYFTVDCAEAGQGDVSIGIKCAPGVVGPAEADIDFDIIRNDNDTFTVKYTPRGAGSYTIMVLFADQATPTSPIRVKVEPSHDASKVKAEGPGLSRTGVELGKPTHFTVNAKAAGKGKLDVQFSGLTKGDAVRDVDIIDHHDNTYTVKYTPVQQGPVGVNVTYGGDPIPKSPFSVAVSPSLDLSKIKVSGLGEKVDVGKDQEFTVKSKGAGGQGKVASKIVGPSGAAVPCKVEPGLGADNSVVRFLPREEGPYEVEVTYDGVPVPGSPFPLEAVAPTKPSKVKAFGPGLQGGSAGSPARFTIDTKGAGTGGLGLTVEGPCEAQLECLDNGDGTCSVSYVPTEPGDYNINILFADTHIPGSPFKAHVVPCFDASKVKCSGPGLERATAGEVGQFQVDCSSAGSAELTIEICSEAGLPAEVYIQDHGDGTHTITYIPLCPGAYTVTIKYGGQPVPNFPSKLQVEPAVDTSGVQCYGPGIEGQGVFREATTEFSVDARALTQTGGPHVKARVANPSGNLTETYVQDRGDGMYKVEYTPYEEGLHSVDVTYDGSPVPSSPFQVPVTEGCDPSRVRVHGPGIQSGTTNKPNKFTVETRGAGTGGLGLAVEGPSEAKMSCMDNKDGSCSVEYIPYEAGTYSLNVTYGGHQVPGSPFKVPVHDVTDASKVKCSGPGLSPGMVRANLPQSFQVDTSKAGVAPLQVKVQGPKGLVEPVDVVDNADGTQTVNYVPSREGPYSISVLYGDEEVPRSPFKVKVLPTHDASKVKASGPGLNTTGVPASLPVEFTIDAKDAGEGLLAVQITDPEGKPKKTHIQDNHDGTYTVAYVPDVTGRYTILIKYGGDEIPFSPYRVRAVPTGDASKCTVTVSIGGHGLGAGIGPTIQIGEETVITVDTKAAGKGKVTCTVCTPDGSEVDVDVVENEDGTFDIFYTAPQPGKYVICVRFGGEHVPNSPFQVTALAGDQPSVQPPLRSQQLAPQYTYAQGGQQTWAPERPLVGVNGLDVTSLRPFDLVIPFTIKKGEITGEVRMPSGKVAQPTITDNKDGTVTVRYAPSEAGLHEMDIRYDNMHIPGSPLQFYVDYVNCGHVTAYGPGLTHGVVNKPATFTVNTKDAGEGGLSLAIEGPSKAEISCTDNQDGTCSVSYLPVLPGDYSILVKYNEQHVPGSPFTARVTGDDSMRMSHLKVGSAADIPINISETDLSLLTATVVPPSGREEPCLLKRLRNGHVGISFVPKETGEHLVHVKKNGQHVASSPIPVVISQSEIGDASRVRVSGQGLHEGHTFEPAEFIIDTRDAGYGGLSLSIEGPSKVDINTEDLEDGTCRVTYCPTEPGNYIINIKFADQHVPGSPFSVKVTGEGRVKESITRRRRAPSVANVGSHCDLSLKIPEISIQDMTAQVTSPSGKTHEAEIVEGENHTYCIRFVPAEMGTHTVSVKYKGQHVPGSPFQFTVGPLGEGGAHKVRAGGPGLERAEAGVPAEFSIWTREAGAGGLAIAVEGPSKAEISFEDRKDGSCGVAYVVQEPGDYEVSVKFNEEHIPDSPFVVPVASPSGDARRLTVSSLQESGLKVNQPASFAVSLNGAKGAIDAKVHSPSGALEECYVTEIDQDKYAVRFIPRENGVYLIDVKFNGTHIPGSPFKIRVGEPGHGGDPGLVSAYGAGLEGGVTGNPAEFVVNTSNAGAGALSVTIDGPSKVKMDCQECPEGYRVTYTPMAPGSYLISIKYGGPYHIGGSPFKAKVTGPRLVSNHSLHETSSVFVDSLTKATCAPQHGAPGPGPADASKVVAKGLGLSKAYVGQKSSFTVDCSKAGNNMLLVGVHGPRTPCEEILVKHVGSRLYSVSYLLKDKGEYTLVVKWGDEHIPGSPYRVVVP

CN1CCC2(CC1)NCC(=O)N2Cc1ccccc1.Cl [HCl mono-salt, 1-benzyl-8-methyl-1,4,8-triazaspiro-[4.5]-decan-2-one monohydrochloride]
loss in purity by HPLC during stability studies ([1]; 1 week, all conditions): No significant loss in purity
polymorphic form by XRPD after 1 week ([1]; 40° C./75% RH): deliquesced
HPLC Purity T = One week ([1]; 40° C./75% RH, open vial): 99.4%
Observations T = One week ([1]; 40° C./75% RH, open vial): Clear liquid
polymorphic form by XRPD after 1 week ([1]; 80° C.): retained its polymorphic form
HPLC Purity T = One week ([1]; 80° C., open vial): 99.5%
Observations T = One week ([1]; 80° C., open vial): Off-white
HPLC Purity T = One week [1, 6]: 98.6%
Observations T = One week [1, 6]: White solid
polymorphic form by XRPD after 1 week ([1]; ambient): retained its polymorphic form
HPLC Purity T = 0 [1]: 98.8%
Observations T = 0 [1]: White solid
post-DVS XRPD analysis [2]: not consistent with any of the forms previously observed
hygroscopicity by DVS ([2]; monohydrochloride): very hygroscopic above 70% RH; also recorded: deliquesced at high RH
hysteresis [2]: 7.3%
water uptake, sorption cycle ([2]; at 70% RH): 2.55%
water uptake, sorption cycle ([2]; at 90% RH): 68.57%
mass decrease, desorption cycle ([2]; between 10% and 0% RH): 6.10%
mass decrease, desorption cycle ([2]; between 90% and 50% RH): 54.25%
water uptake, sorption cycle ([2]; until 60% RH): about 0.27%
solubility [3, 7]: < 10000 µg/mL
solubility [3, 8]: < 10000 µg/mL
Solubility at 40° C. ([3]; 2-Propanol:water (10%)): very high solubility
solubility [3, 9]: < 10000 µg/mL
solubility [3, 10]: < 10000 µg/mL
solubility [3, 11]: > 200000 µg/mL
Solubility at 40° C. ([3]; Acetone:Water (5%)): Some solubility
Solubility at 40° C. ([3]; Acetone:Water (20%)): very high solubility
Solubility at 40° C. ([3]; Dimethylacetamide): Some solubility
Solubility at 40° C. ([3]; Dimethylsulfoxide): high solubility
Solubility at 40° C. ([3]; Ethanol): Some solubility
Solubility at 40° C. ([3]; Methanol): very high solubility
Solubility at 40° C. ([3]; Water): very high solubility
solubility [3, 12]: < 10000 µg/mL
solubility [3, 13]: ~20000 µg/mL
solubility [3, 14]: > 200000 µg/mL
solubility [3, 15]: < 10000 µg/mL
solubility [3, 16]: < 10000 µg/mL
solubility [3, 17]: ~10000 µg/mL
solubility [3, 18]: ~105000 µg/mL
solubility [3, 19]: ~20000 µg/mL
solubility [3, 20]: < 10000 µg/mL
solubility [3, 21]: < 10000 µg/mL
solubility [3, 22]: < 10000 µg/mL
solubility [3, 23]: > 200000 µg/mL
solubility [3, 24]: < 10000 µg/mL
solubility [3, 25]: < 10000 µg/mL
solubility [3, 26]: < 10000 µg/mL
solubility [3, 27]: < 10000 µg/mL
solubility [3, 28]: < 10000 µg/mL
solubility [3, 29]: < 10000 µg/mL
solubility ([3]; water): > 200000 µg/mL

CN1CCC2(CC1)NCC(=O)N2Cc1ccccc1 [Compound C0105, 1-benzyl-8-methyl-1,4,8-triazaspiro[4.5]-decan-2-one]
EC50, inhibition of [3H]NLX binding (filamin-A (FLNA)): 10^−12 to 10^−13 M
pKa ([4]; higher value): 8
pKa ([4]; lower value): 1.5

CN1CCC2(CC1)NCC(=O)N2Cc1ccccc1 [HCl Di-Salt Hydrate (Form 2), 1-benzyl-8-methyl-1,4,8-triazaspiro-[4.5]-decan-2-one dihydrochloride monohydrate]
Observations T = One week ([1]; 40° C./75% RH, open vial): White solid
HPLC Purity T = One week [1, 30]: 99.8%
polymorphic form by XRPD after 1 week [1, 31]: increase in crystallinity
Observations T = One week [1, 32]: white to off-white/orange; also recorded: Orange solid
polymorphic form by XRPD after 1 week [1, 33]: did not indicate significant changes in polymorphic form
Observations T = One week [1, 6]: White solid
HPLC Purity T = One week [1, 34]: 99.5%
polymorphic form by XRPD after 1 week [1, 35]: did not indicate significant changes in polymorphic form
Observations T = 0 [1]: White solid
HPLC Purity T = 0 ([1]; dihydrochloride monohydrate): 99.4%
hygroscopicity by DVS ([2]; dihydrochloride monohydrate): less hygroscopic than Form 1 between 0% and 50% RH, but more hygroscopic than Form 1 by DVS analysis >50% RH; also recorded: hygroscopic above 50% RH
hysteresis [2]: about 0.4%
water uptake, sorption cycle ([2]; at 50% RH (0% to 50% RH), dihydrochloride monohydrate): about 0.2%
water uptake, sorption cycle ([2]; at 80% RH, dihydrochloride monohydrate): about 9.9%
mass decrease, desorption cycle [2, 36]: 6.77%
post-DVS XRPD analysis ([2]; dihydrochloride monohydrate): increase in crystallinity
Observations, hydration study ([5]; 5% water, water activity approx. 0.5): White suspension
Observations, hydration study ([5]; 10% water, water activity approx. 0.7): White suspension
Observations, hydration study ([5]; 40% water, water activity approx. 0.9): White suspension
form change by XRPD on stirring in IPA/water mixtures ([5]; various IPA/water mixtures, 24 hours): no form change occurred

CN1CCC2(CC1)NCC(=O)N2Cc1ccccc1 [HCl Di-Salt Hydrate, Form 1, 1-benzyl-8-methyl-1,4,8-triazaspiro-[4.5]-decan-2-one dihydrochloride monohydrate]
Observations T = One week ([1]; 40° C./75% RH, open vial): White solid
HPLC Purity T = One week [1, 30]: 99.0%
polymorphic form by XRPD after 1 week [1, 31]: No significant changes in polymorphic form
HPLC Purity T = One week [1, 32]: 99.4%
Observations T = One week [1, 32]: Off-white
polymorphic form by XRPD after 1 week [1, 33]: No significant changes in polymorphic form
Observations T = One week [1, 6]: White solid
HPLC Purity T = One week [1, 34]: 99.4%
polymorphic form by XRPD after 1 week [1, 35]: No significant changes in polymorphic form
Observations T = 0 [1]: White solid
HPLC Purity T = 0 ([1]; dihydrochloride monohydrate): 99.1%
hygroscopicity by DVS ([2]; dihydrochloride monohydrate): hygroscopic above 50% RH
final dry mass higher than the initial dry mass ([2]; at 0% RH following sorption and de-sorption profile): 0.13%
largest hysteresis, difference in water uptake between sorption and de-sorption profile ([2]; at 50% RH): 0.78%
water uptake, sorption cycle ([2]; at 90% RH, dihydrochloride monohydrate): about 8.26%
mass decrease, desorption cycle [2, 36]: about 2.33%
post-DVS XRPD analysis ([2]; dihydrochloride monohydrate): No significant differences in polymorphic form
solubility [3, 7]: < 10000 µg/mL
solubility [3, 8]: < 10000 µg/mL
Solubility at 40° C. ([3]; 2-Propanol:water (10%)): Moderate solubility
solubility [3, 9]: < 10000 µg/mL
solubility [3, 10]: < 10000 µg/mL
solubility [3, 11]: ~25000 µg/mL
Solubility at 40° C. ([3]; Acetone:Water (20%)): High solubility
Solubility at 40° C. ([3]; Dimethylsulfoxide): very high solubility
Solubility at 40° C. ([3]; Methanol): Moderate solubility
Solubility at 40° C. ([3]; Water): very high solubility
solubility [3, 12]: < 10000 µg/mL
solubility [3, 13]: < 10000 µg/mL
solubility [3, 14]: ~85000 µg/mL
solubility [3, 15]: < 10000 µg/mL
solubility [3, 16]: < 10000 µg/mL
solubility [3, 17]: < 10000 µg/mL
solubility [3, 18]: > 200000 µg/mL
solubility [3, 19]: < 10000 µg/mL
solubility [3, 20]: < 10000 µg/mL
solubility [3, 21]: < 10000 µg/mL
solubility [3, 22]: < 10000 µg/mL
solubility [3, 23]: ~25000 µg/mL
solubility [3, 24]: < 10000 µg/mL
solubility [3, 25]: < 10000 µg/mL
solubility [3, 26]: < 10000 µg/mL
solubility [3, 27]: < 10000 µg/mL
solubility [3, 28]: < 10000 µg/mL
solubility [3, 29]: < 10000 µg/mL
solubility ([3]; water): > 200000 µg/mL
